Legend:
Assay type in all cases: functional
[1] = system: COLO 205; test: Growth inhibition of human COLO205 cells by sulforhodamine B assay
[2] = system: LOX IMVI; test: Growth inhibition of human LOXIMVI cells assessed as cell growth at 10^-6 M by sulforhodamine B assay; conditions: read-out: Activity
[3] = system: NCI-H226; test: Growth inhibition of human NCI-H226 cells by sulforhodamine B assay
[4] = system: OVCAR-5; test: Growth inhibition of human OVCAR5 cells assessed as cell growth at 10^-8 M by sulforhodamine B assay; conditions: read-out: Activity
[5] = system: HT-29; test: Growth inhibition of human HT-29 cells by sulforhodamine B assay
[6] = Growth inhibition of human Hs 578T cells assessed as cell growth at 10^-6 M by sulforhodamine B assay; conditions: read-out: Activity
[7] = system: A498; test: Growth inhibition of human A498 cells assessed as cell growth at 10^-4 M by sulforhodamine B assay; conditions: read-out: Activity
[8] = system: NCI-H226; test: Growth inhibition of human NCI-H226 cells assessed as cell growth at 10^-4 M by sulforhodamine B assay; conditions: read-out: Activity
[9] = system: SF-295; test: Growth inhibition of human SF295 cells assessed as cell growth at 10^-8 M by sulforhodamine B assay; conditions: read-out: Activity
[10] = system: MDA-MB-435; test: Growth inhibition of human MDA-MB-435 cells assessed as cell growth at 10^-6 M by sulforhodamine B assay; conditions: read-out: Activity
[11] = system: A549; test: Growth inhibition of human A549/ATCC cells assessed as cell growth at 10^-7 M by sulforhodamine B assay; conditions: read-out: Activity
[12] = system: U-251; test: Growth inhibition of human U251 cells assessed as cell growth at 10^-7 M by sulforhodamine B assay; conditions: read-out: Activity
[13] = system: OVCAR-5; test: Growth inhibition of human OVCAR5 cells assessed as cell growth at 10^-6 M by sulforhodamine B assay; conditions: read-out: Activity
[14] = system: SNB-75; test: Growth inhibition of human SNB75 cells assessed as cell growth at 10^-6 M by sulforhodamine B assay; conditions: read-out: Activity
[15] = system: PC-3; test: Growth inhibition of human PC3 cells by sulforhodamine B assay
[16] = system: HT-29; test: Growth inhibition of human HT-29 cells assessed as cell growth at 10^-6 M by sulforhodamine B assay; conditions: read-out: Activity
[17] = system: A549; test: Growth inhibition of human A549/ATCC cells by sulforhodamine B assay
[18] = Growth inhibition of human HCC2998 cells assessed as cell growth at 10^-6 M by sulforhodamine B assay; conditions: HCC 2998, read-out: Activity
[19] = system: SK-MEL-28; test: Growth inhibition of human SK-MEL-28 cells assessed as cell growth at 10^-6 M by sulforhodamine B assay; conditions: read-out: Activity
[20] = system: SW-620; test: Growth inhibition of human SW620 cells assessed as cell growth at 10^-8 M by sulforhodamine B assay; conditions: read-out: Activity
[21] = system: CAKI-1; test: Growth inhibition of human CAKI-1 cells assessed as cell growth at 10^-6 M by sulforhodamine B assay; conditions: read-out: Activity
[22] = system: RPMI-8226; test: Growth inhibition of human RPMI8226 cells assessed as cell growth at 10^-6 M by sulforhodamine B assay; conditions: read-out: Activity
[23] = system: A549; test: Growth inhibition of human A549/ATCC cells assessed as cell growth at 10^-8 M by sulforhodamine B assay; conditions: read-out: Activity
[24] = system: NCI-H23; test: Growth inhibition of human NCI-H23 cells assessed as cell growth at 10^-8 M by sulforhodamine B assay; conditions: read-out: Activity
[25] = system: HL-60(TB); test: Growth inhibition of human HL-60(TB) cells assessed as cell growth at 10^-6 M by sulforhodamine B assay; conditions: read-out: Activity
[26] = system: SF-268; test: Growth inhibition of human SF268 cells assessed as cell growth at 10^-8 M by sulforhodamine B assay; conditions: read-out: Activity
[27] = system: ACHN; test: Growth inhibition of human ACHN cells by sulforhodamine B assay
[28] = system: NCI-H322M; test: Growth inhibition of human NCI-H322M cells assessed as cell growth at 10^-8 M by sulforhodamine B assay; conditions: read-out: Activity
[29] = system: SF-268; test: Growth inhibition of human SF268 cells by sulforhodamine B assay
[30] = system: MDA-MB-435; test: Growth inhibition of human MDA-MB-435 cells assessed as cell growth at 10^-7 M by sulforhodamine B assay; conditions: read-out: Activity
[31] = system: DU-145; test: Growth inhibition of human DU145 cells by sulforhodamine B assay
[32] = system: SK-MEL-5; test: Growth inhibition of human SK-MEL-5 cells assessed as cell growth at 10^-6 M by sulforhodamine B assay; conditions: read-out: Activity
[33] = system: SNB-19; test: Growth inhibition of human SNB19 cells assessed as cell growth at 10^-7 M by sulforhodamine B assay; conditions: read-out: Activity
[34] = system: 786-0; test: Growth inhibition of human 786-0 cells assessed as cell growth at 10^-4 M by sulforhodamine B assay; conditions: read-out: Activity
[35] = system: HT-29; test: Growth inhibition of human HT-29 cells assessed as cell growth at 10^-4 M by sulforhodamine B assay; conditions: read-out: Activity
[36] = system: CAKI-1; test: Growth inhibition of human CAKI-1 cells by sulforhodamine B assay
[37] = system: MOLT-4; test: Growth inhibition of human MOLT4 cells assessed as cell growth at 10^-7 M by sulforhodamine B assay; conditions: read-out: Activity
[38] = system: SK-MEL-5; test: Growth inhibition of human SK-MEL-5 cells assessed as cell growth at 10^-4 M by sulforhodamine B assay; conditions: read-out: Activity
[39] = system: M14; test: Growth inhibition of human M14 cells assessed as cell growth at 10^-8 M by sulforhodamine B assay; conditions: read-out: Activity
[40] = read-out: LC50 (the source's name)
[41] = read-out: pLC50 (the source's name) (converted)

CC(C)=CC(=O)O[C@@H]1CC(C)(C)C[C@H]2C3=CC[C@@H]4[C@@]5(C)CCC(=O)C(C)(C)[C@@H]5CC[C@@]4(C)[C@]3(C)CC[C@@]12C(=O)O
GI50 ([1]; read-out: GI50): 3.61 µM | LC50 ([1]; read-out: LC50): 49.1 µM | TGI ([1]; read-out: TGI): 12.3 µM | GI50 ([1]; read-out: pGI50 (converted)): 3.63 µM | LC50 ([1]; read-out: pLC50 (converted)): 49 µM | TGI ([1]; read-out: pTGI (converted)): 12.3 µM | growth at 1 µM [2]: 87% | GI50 ([3]; read-out: GI50): 5.68 µM | LC50 ([3]; read-out: LC50): > 100 µM | TGI ([3]; read-out: TGI): > 100 µM | GI50 ([3]; read-out: pGI50 (converted)): 5.62 µM | LC50 ([3]; read-out: pLC50 (converted)): > 100 µM | TGI ([3]; read-out: pTGI (converted)): > 100 µM | growth at 0.01 µM [4]: 94% | GI50 ([5]; read-out: GI50): 3.94 µM | LC50 (50% cell kill) ([5]; read-out: LC50): > 100 µM | TGI ([5]; read-out: TGI): 32.3 µM | GI50 ([5]; read-out: pGI50 (converted)): 3.98 µM | LC50 (50% cell kill) ([5]; read-out: pLC50 (converted)): > 100 µM | TGI ([5]; read-out: pTGI (converted)): 32.4 µM | growth at 1 µM [6]: 86% | growth at 100 µM [7]: -44% | growth at 100 µM [8]: 12% | growth at 0.01 µM [9]: 86% | growth at 1 µM [10]: 92% | growth at 0.1 µM [11]: 88% | growth at 0.1 µM [12]: 90% | growth at 1 µM [13]: 86% | growth at 1 µM [14]: 87% | GI50 ([15]; read-out: GI50): 1.55 µM | CC50 [15, 40]: > 100 µM | TGI ([15]; read-out: TGI): 89.1 µM | GI50 ([15]; read-out: pGI50 (converted)): 1.55 µM | CC50 [15, 41]: > 100 µM | TGI ([15]; read-out: pTGI (converted)): 89.1 µM | growth at 1 µM [16]: 82% | GI50 ([17]; read-out: GI50): 0.797 µM | CC50 [17, 40]: > 100 µM | TGI ([17]; read-out: TGI): 15.6 µM | GI50 ([17]; read-out: pGI50 (converted)): 0.794 µM | CC50 [17, 41]: > 100 µM | TGI ([17]; read-out: pTGI (converted)): 15.5 µM | growth at 1 µM [18]: 88% | growth at 1 µM [19]: 103% | growth at 0.01 µM [20]: 100% | growth at 1 µM [21]: 87% | growth at 1 µM [22]: 58% | growth at 0.01 µM [23]: 93% | growth at 0.01 µM [24]: 94% | growth at 1 µM [25]: 94% | growth at 0.01 µM [26]: 96% | GI50 ([27]; read-out: GI50): 2.99 µM | CC50 [27, 40]: > 100 µM | TGI ([27]; read-out: TGI): 27.9 µM | GI50 ([27]; read-out: pGI50 (converted)): 3.02 µM | CC50 [27, 41]: > 100 µM | TGI ([27]; read-out: pTGI (converted)): 28.2 µM | growth at 0.01 µM [28]: 93% | GI50 ([29]; read-out: GI50): 5.27 µM | LC50 ([29]; read-out: LC50): > 100 µM | TGI ([29]; read-out: TGI): 29.4 µM | GI50 ([29]; read-out: pGI50 (converted)): 5.25 µM | LC50 ([29]; read-out: pLC50 (converted)): > 100 µM | TGI ([29]; read-out: pTGI (converted)): 29.5 µM | growth at 0.1 µM [30]: 98% | GI50 ([31]; read-out: GI50): 5.12 µM | CC50 [31, 40]: 98.3 µM | TGI ([31]; read-out: TGI): 25.1 µM | GI50 ([31]; read-out: pGI50 (converted)): 5.13 µM | CC50 [31, 41]: 97.7 µM | TGI ([31]; read-out: pTGI (converted)): 25.1 µM | growth at 1 µM [32]: 60% | growth at 0.1 µM [33]: 88% | growth at 100 µM [34]: -42% | growth at 100 µM [35]: -27% | GI50 ([36]; read-out: GI50): 3.84 µM | CC50 [36, 40]: > 100 µM | TGI ([36]; read-out: TGI): 84.8 µM | GI50 ([36]; read-out: pGI50 (converted)): 3.8 µM | CC50 [36, 41]: > 100 µM | TGI ([36]; read-out: pTGI (converted)): 85.1 µM | growth at 0.1 µM [37]: 100% | growth at 100 µM [38]: -78% | growth at 0.01 µM [39]: 98%

Reference: ChEMBL document CHEMBL2413072, “Synthesis and in vitro anticancer studies of novel C-2 arylidene congeners of lantadenes” (2013)
